According to patent US20080009415A1, “Fungicidal Mixtures” (BASF Aktiengesellschaft, priority 2004, published 2008):

Test system: Alternaria solani
Assay: Activity against early blight of tomato caused by Alternaria solani
Assay type: in vivo
Conditions: single active compound, leaves sprayed to runoff, infected next day, assessed after 5 days, efficacy in % of untreated control (Abbot)
Method: The active compounds were prepared separately or jointly as a stock solution with 25 mg of active compound which was made up to 10 ml using a mixture of acetone and/or DMSO and the emulsifier Uniperol®) EL (wetting agent having emulsifying and dispersing action based on ethoxylated alkylphenols) in a volume ratio of solvent/emulsifier of 99 to 1. The mixture was then made up with water to 100 ml. This stock solution was diluted with the solvent/emulsifier/water mixture described to the concentration of active compounds stated below.
The visually determined percentages of infected leaf areas were converted into efficacies in % of the untreated control:
The efficacy (E) is calculated as follows using Abbot's formula: E=(1−α/β)·100 α corresponds to the fungicidal infection of the treated plants in % and β corresponds to the fungicidal infection of the untreated (control) plants in % An efficacy of 0 means that the infection level of the treated plants corresponds to that of the untreated control plants; an efficacy of 100 means that the treated plants were not infected.
The expected efficacies of mixtures of active compounds were determined using Colby's formula (Colby, S. R. “Calculating synergistic and antagonistic responses of herbicide combinations”, Weeds, 15, 20-22, 1967) and compared with the observed efficacies.
Colby's formula: E=x+y−x·y/100
E expected efficacy, expressed in % of the untreated control, when using the mixture of the active compounds A and B at the concentrations a and b x efficacy, expressed in % of the untreated control, when using the active compound A at the concentration a y efficacy, expressed in % of the untreated control, when using the active compound B at the concentration b Use Example—Activity Against Early Blight of Tomato Caused by Alternaria solani Leaves of potted plants of the cultivar “Goldene Königin” were sprayed to runoff point with an aqueous suspension having the concentration of active compound stated below. […]

| SMILES | Observed efficacy (%) (Conc. 4 ppm) | Observed efficacy (%) (Conc. 1 ppm) |
| --- | --- | --- |
| CO/C=C(/C(=O)OC)c1ccccc1CO/N=C(C)/C=C/c1ccc(Cl)cc1 [enestroburin (I), methyl 2-{2-[3-(4-chlorophenyl)-1-methylallylideneaminooxymethyl]phenyl}-3-methoxyacrylate] | 22 | – |
| COc1cc(C)c(C(=O)c2c(OC)ccc(Br)c2C)c(OC)c1OC [metrafenone (II-41), 3′-bromo-2,3,4,6′-tetramethoxy-2′,6-dimethylbenzophenone] | 0 | 0 |
